The test system of assay [1] is Phospho-Rb (Ser807/811) in SW1573-CDK6 KO cells. As to the kind of experiment: Phospho-Rb expression inhibition in SW1573-CDK6 KO cells quantified by in cell Western. The assay is classed as cell-based. The note with it: Homo sapiens, 24 hours, read-out: SW1573 CDK6 KO pRb IC50. The method, then: (§1) Parental SW1573 cells were obtained from the American Type Culture Collection (ATCC). CDK4 or CDK6 gene in […] cells was knocked out using the CRISPR-Cas9 technology. First, gRNA complex of CDK4 or CDK6 was prepared with Alt-R CRISPR-Cas9 tracrRNA and crRNA CDK4 (5′-[…]-3′ (SEQ ID NO: 4)) or CDK6 (5′-[…]-3′ (SEQ ID NO. 5)) (IDT-Integrated DNA Technologies), and then ribonucleoprotein (RNP) complex of CDK4 or CDK6 was prepared with respective gRNA complex and Alt-R S.p. Cas9 Nuclease V3 (IDT-Integrated DNA Technologies). Next, 5×10^4/10 μL SWJ1573 cells were electroporated with the CDK4 or CDK6 RNP complex and Alt-R Cas9 Electroporation Enhancer using Neon Transfection System (Thermo Fisher). Cells were then plated in a 96-well plate to select single clones for validation of CDK4 or CDK6 knockout by western blot analysis.
(§2) MCF7 cells were obtained from American Type Culture Collection (ATCC, HTB-22). SW1573-CDK6 KO and SW1573-CDK4 KO cells were generated by the CRISPR-Cas9 technology. All cells were plated in 96-well plates (VWR #10062-900, or Corning #3904) in 90 uL culture medium at a density of 20,000 cells/well in the respective growth medium containing 10% FBS and 1% Penicillin Streptomycin, and then incubated at 37° C. overnight. The following day, the test compound was administered to the cells by using 1000× compound stock solution prepared in DMSO at various concentrations. 1000× compound stock solution was first diluted in culturing medium to 10×, then 10 uL compound medium was added to each well in the cell plates. After administration of the compound, the cells were then incubated at 37° C. for 24 hours. Upon completion, the cells were washed with PBS briefly. 150 uL/well of 4% formaldehyde was added and the plates were incubated at room temperature for 20 mins. The cells were washed with PBS briefly, and permeabilized with 150 uL/well of ice cold 100% methanol for 10 mins. The cells were washed with PBS briefly and blocked with 100 uL/well LI-COR blocking buffer for 1 hr at room temperature with gentle shaking. The cells were incubated overnight at 4° C. with 50 uL primary antibody rabbit anti-Phospho-Rb (Ser807/811) (1: 500, Cell Signaling, #8516) and anti-Rb (1:200, Santa Cruz, sc-73598) diluted in Intercept Blocking Buffer (LI-COR, #927-60001) containing 0.1% Tween 20. The next day, the cells were washed with 200 uL PBS containing 0.1% Tween 20, 5×5 mins at room temperature with gentle shaking, and incubated with 50 uL secondary antibody, IRDye® 800CW Goat anti-Rabbit IgG (1:1000, LI-COR, #926-32211) and IRDye®680RD Goat anti-Mouse IgG (1:1000, LI-COR, #926-68070), in LI-COR blocking buffer with 0.2% Tween 20 for 1 hr at room temperature with gentle shaking. The cells were washed with 200 uL PBS containing 0.1% Tween 20, 5×5 mins at room temperature with gentle shaking. The cells were washed with PBS for 5 mins. 100 uL fresh PBS was added to each well and the plates were imaged on a LI-COR Odyssey CLX plate reader.

In assay [2] the test system is Phospho-Rb (Ser807/811) in MCF7 cells. As to the kind of experiment: Phospho-Rb expression inhibition in MCF7 cells quantified by in cell Western. It counts as cell-based, human. The note with it: Homo sapiens, MCF7, 24 h, 24 hours, in cell Western, read-out: MCF7 pRb IC50. The gist of the method: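 MCF7 cells were seeded at 20,000/well, grown overnight, then treated 24 h at 37 °C with compound dilutions (0.1% DMSO from 1000× stocks). Fixed cells were co-stained for phospho-Rb Ser807/811 and total Rb. Near-infrared dual-channel in-cell Western imaging was the read-out.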

In assay [3] the test system is Phospho-Rb (Ser807/811) in SW1573-CDK4 KO cells. As to the kind of experiment: Phospho-Rb expression inhibition in SW1573-CDK4 KO cells quantified by in cell Western. Conditions: Homo sapiens, 24 hours, read-out: SW1573 CDK4 KO pRb IC50. The assay is classed as cell-based. Here is the method: as §1, §2

Take `CC(C)n1c(C2CCC2(F)F)nc2c(F)cc(-c3nc(N[C@@H]4C[C@H]5CO[C@H](O5)[C@H]4O)ncc3Cl)cc21` (stereo partly drawn) [Compound 239, (1S,3R,4S,5R)-3-((5-chloro-4-(2-(2,2-difluorocyclobutyl)-4-fluoro-1-isopropyl-1H-benzo[d]imidazol-6-yl)pyrimidin-2-yl)amino)-6,8-dioxabicyclo[3.2.1]octan-4-ol]: the figures for the IC50 in assay [1], in assay [2] and in assay [3] were at most 40 nM, at most 40 nM and 150 to 1000 nM, respectively.
Take `CC(C)n1c(C2CC(F)C2)nc2c(F)cc(-c3nc(N[C@@H]4C[C@H]5CO[C@H](O5)[C@H]4O)ncc3Cl)cc21` (stereo partly drawn) [Compound 243, (1S,3R,4S,5R)-3-((5-chloro-4-(4-fluoro-2-((1r,3R)-3-fluorocyclobutyl)-1-isopropyl-1H-benzo[d]imidazol-6-yl)pyrimidin-2-yl)amino)-6,8-dioxabicyclo[3.2.1]octan-4-ol]: the IC50 in assay [1] was 40 to 150 nM; in assay [3] it was above 1000 nM.
With `CC(C)n1c([C@H]2C[C@H]2C(=O)N(C)C)nc2c(F)cc(-c3nc(N[C@@H]4C[C@H]5CO[C@H](O5)[C@H]4O)ncc3Cl)cc21` [Compound 248, (1R,2S)-2-(6-(5-chloro-2-(((1S,3R,4S,5R)-4-hydroxy-6,8-dioxabicyclo[3.2.1]octan-3-yl)amino)pyrimidin-4-yl)-4-fluoro-1-isopropyl-1H-benzo[d]imidazol-2-yl)-N,N-dimethylcyclopropane-1-carboxamide], the IC50 in assay [1] was 150 to 1000 nM; in assay [2] it was 40 to 150 nM; in assay [3], above 1000 nM.

Source of the values: patent US20250084095A1, “Aminopyrimidine Derivatives as Cyclin-Dependent Kinase Inhibitors” (Accutar Biotechnology Inc., priority 2023, published 2025).
